The values that follow come from patent US20110059174A1, “PKCdelta REGULATES NEUROINFLAMMATORY EVENTS” (IOWA STATE UNIVERSITY RESEARCH FOUNDATION, INC., priority 2009, published 2011).

The subject of one series is BV-2 cells. The series can be described thus: TNFα release from BV-2 cells exposed to MMP-3 or MPP (Luminex). The series is classed as cell-based. The protocol: FIG. 6. MMP3-induces TNFα release in BV2 cells. […] After 24 h, the amount of TNFa released into the extracellular medium were determined in Luminex assays (see methods for details). n=6 ** p<0.01 compared to control.
(§1) Microglial cells are the primary immune cells in the CNS and are the major source of TNFα during neuroinflammation. Therefore, in this section, we examined the possible mechanisms that could regulate TNFα release during microglial activation. In particular, we examined whether PKCδ plays any role in the production and release of cytokines. For these studies, we used LPS as a microglial activator on BV2 cells, a widely used microglial cell line. BV-2 cells were exposed to LPS (1 μg/ml) in the presence or absence of PKCδ inhibitor rottlerin (1-3 μM). […] After 16 hr, cell-free supernatants were collected and TNFα levels were quantified using a multiplex bead-based luminex® assay system, as described in the methods.
Matrix metalloproteinases (MMPs) are a family of highly homologous protein-degrading zinc dependent endopeptidases. […] Therefore, we examined if MMP-3 could trigger TNFα release in BV-2 cells. […] Following 24 hr of MMP-3 treatment, supernatants were collected from extracellular medium and TNFα levels were determined using a Luminex immunoassay. […]

Series [1] has as its system nigral dopaminergic neurons. The conditions noted are these: MPTP-induced animal model of Parkinson's disease; cited from earlier work.
The next series has as its system PKCδ. The following applies: dose range 1-3 μM; cited from earlier work.
Another series relates to primary mouse microglia. The series can be described thus: LPS-induced cytokine release from primary mouse microglia (Luminex immunoassay). The format is cell-based. The protocol: FIG. 8. Effect of PKCδ inhibitor rottlerin on LPS-induced TNFα release from primary mouse microglia. Primary microglia were treated with 100 ng/ml LPS for 24 hr in the presence of PKCδ inhibitor rottlerin (1 μM and 3 μM). TNFα levels in the culture medium were quantified using a multiplex bead-based luminex® immunoassay. *** p<0.001 compared to controls; […] ### p<0.001 compared to LPS treatment; N=5.
FIG. 10. PKCδ inhibitor rottlerin suppresses pro-inflammatory cytokine release in primary mouse microglia. Primary microglia were isolated by differential adherence from post-natal mixed-glial cultures and purity verified to be more than 95% by immunocytochemistry. Primary microglia were treated with LPS (100 ng/ml) for 24 hrs or pre-treated with the PKCδ inhibitor rottlerin (1 μM) and then treated with LPS. After treatment, supernatants were collected and proinflammatory cytokine levels were assayed using a multiplexed luminex assay.
To extend the results obtained with the BV2 microglial cell line to primary microglia, we performed some preliminary studies in primary microglia isolated from post-natal day 2 (PND-2) C57 black mice as described previously (Floden et al. 2006). Briefly, the brain tissues from PND-2 mice were gently triturated in ice-cold Ca^2+ and Mg^2+-free HBSS. The cells were spun down and cultured using DMEM/F-12 medium containing 10% heat-inactivated FBS, antibiotics and essential nutrients, as described previously (Liu et al. 2002). After 12-14 days, microglia were harvested by the differential shaking method (350 rpm for 4 hr) and grown on poly-D lysine coated 24-well plates. Primary microglia were then fixed with 4% paraformaldehyde and processed for immunohistochemical staining using CD 11b (microglial marker) monoclonal antibody followed by Alexa 568-conjugated secondary antibody (red). Nuclei were stained with TO-PRO-3 dye (blue). The cells were viewed using a Nikon TE2000 microscope, and images were captured by SPOT digital camera. […] Additionally, we have established a microglia isolation procedure using magnetic labeled CD11b (MACs CD11b+) microbeads followed by AutoMACS cell sorting, which also yielded over 95% pure microglia.
We extended this study to primary microglia. CD11b+ primary microglia cultures were prepared, as described in the previous section. The primary microglial cultures were treated with 100 ng/ml LPS for 24 hr in the presence of various doses of the PKCδ inhibitor rottlerin (1 μM and 3 μM). TNFα levels in the culture medium were quantified using a multiplex bead-based Luminex® immunoassay. […] 3 μM rottlerin reduced LPS-induced TNFα release by 75%. Consistent with the BV2 cell line data presented in the original proposal, the new results provide further evidence that PKCδ can regulate TNFα release in primary microglia during neuroinflammation.
FIG. 10. PKCδ inhibitor rottlerin suppresses pro-inflammatory cytokine release in primary mouse microglia. Primary Microglia were isolated by differential adherence from post-natal mixed-glial cultures and purity verified to be more than 95% by immunocytochemistry. Primary microglia were treated with LPS (100 ng/ml) for 24 hrs or pre-treated with the PKCδ inhibitor rottlerin (1 μM) and then treated with LPS. After treatment, supernatants were collected and proinflammatory cytokine levels were assayed using a multiplexed luminex assay.

For the next series, the system named is BV-2 microglia. The experiment in a line: LPS induced cytokine release in BV-2 microglia (Luminex immunoassay). The series is classed as cell-based. The following applies: BV-2 cells. The protocol:
FIG. 1. […] BV-2 microglia were exposed to 1 μg/ml LPS with and without rottlerin (1 to 3 μM) for 16 hrs and cell free supernatants were collected.
BV-2 microglia were transfected with 20 nM PKCδ siRNA and non-specific siRNA. 24 hr later transfected cells were treated with LPS (1 μg/ml) for 16 hrs and cell free supernatants were collected. Specificity of PKCδ suppression was assessed by western blotting.
as §1
In this experiment, we examined whether PKCδ-siRNA mediated knockdown of PKCδ, would suppress LPS-induced TNFα release in BV-2 cells.

For series [2] the following is noted: dose range 1-3 μM; cited from earlier work.
The subject of another series is PKCδ promoter. The experiment in a line: PKCδ promoter luciferase reporter assay in BV-2 cells. The format is cell-based, mouse. An excerpt: FIG. 4. PKCδ promoter structure and site-directed mutagenesis of NFkB binding sites. (A) The ˜2 kb fragment of mouse PKCδ promoter region (relative to the transcription start site) was cloned using genomic DNA prepared from MN9D cells by the fusion PCR technique. PKCδ promoter fragment was cloned into promoter-less pGL3-basic vector with a luciferase reporter gene (Luc). (B). Site-specific mutagenesis of two NFkB sites present in the PKCδ promoter region.
FIG. 5. Mutation of NFkB sites block TNFa induced PKCδ promoter activity. Briefly, BV2 cells, were transfected with promoter constructs coding for native or NFkB mutated PKCδ promoter (see FIG. 10). 12 h after transfection, cells were exposed to 30 ng/ml TNF with or without etanercept (ETA). 24 h later, cell lsyates were subject to luciferase assay.
Since PKCδ upregulation was observed during neuroinflammation (FIG. 4A), we sought to determine mechanisms that regulate PKCδ expression via transcriptional activation. We first cloned the full-length mouse PKCδ promoter (2 Kb) from genomic DNA using the fusion PCR technique (FIG. 5A). The resulting PKCδ promoter 2 Kb fragment was cloned into the promoter-less pGL3-luciferase reporter vector. Binding of the transcription factors to the PKCδ promoter region would result in the expression of luciferase enzyme. […]
In general terms: A reporter such as luciferase makes a cellular process visible.

The mark [3] stands for this setting: LPS-stimulated primary mouse microglia.
[4] abbreviates: LPS and rottlerin treated samples, data not shown.

For `C[n+]1ccc(-c2ccccc2)cc1` [MPP, 1-methyl-4-phenylpyridinium], the “TNFα release from BV-2 cells” value in the series on BV-2 cells (24 hr exposure to 300 μM, data not shown) is recorded as “failed to release TNFα”.
As for `CC(=O)c1c(O)c(C)c(O)c(Cc2c(O)c3c(c(C(=O)/C=C/c4ccccc4)c2O)OC(C)(C)C=C3)c1O` [rottlerin, 3-[(8-Cinnamoyl-5,7-dihydroxy-2,2-dimethyl-2H-1-benzopyran-6-yl)methyl]-2′,4′,6′-trihydroxy-5-methylaceophenone], the “nigral dopaminergic neuronal death” value in series [1] is reported as “protects”. Moreover, the PKCδ inhibition result with PKCδ is recorded as “effectively inhibits PKCδ”. Further, in the series on primary mouse microglia (setting [3]), the “release of IL-6” value was “decrease” and the “release of IL-12” value is “decrease”. The “reduction of LPS-induced TNFα release” value with primary mouse microglia (primary microglia, 100 ng/ml LPS 24 hr, 3 μM rottlerin) is reported as 75%. Further, the “LPS-induced TNFα levels” value in the series with primary mouse microglia (primary microglia, 100 ng/ml LPS 24 hr, rottlerin 1 μM and 3 μM, dose dependent) was “significantly suppressed”. The pro-inflammatory cytokine release result with primary mouse microglia (primary microglia, pre-treated with rottlerin 1 μM, LPS 100 ng/ml 24 hrs) is recorded as “suppresses”. The “LPS-induced TNFα release” value in the series with BV-2 microglia (LPS 1 μg/ml, rottlerin 1-3 μM, 16 hr) is given as “dose-dependently blocked”. Besides, in the series with BV-2 microglia (setting [4]), the “LPS-induced IL-6 levels” value was “no effect” and the “LPS-induced IL-12 levels” value was “no effect”. The toxicity result in series [2] is given as “does not cause any toxicity”.
On to Etanercept, for which the “TNFα-induced PKCδ promoter activity” value in the series with PKCδ promoter (BV-2 cells, 30 ng/ml TNF with etanercept, 24 h, luciferase) was “blocked”.
Turning to ProMMP3: inactive proMMP-3, in the series with BV-2 cells (BV-2 cells, 400 ng/ml, 24 hr), the “levels of TNFα compared to control” value is “did not induce any significant levels”.
Regarding TNFα, the PKCδ promoter activity entry in the series on PKCδ promoter (BV-2 cells expressing 148 bp minimal PKCδ promoter construct, 30 ng/ml TNF) is “significant increase”.
